Laboratory results from US7572616B2, “Alternative oxidase and uses thereof” (priority 2005, dated 2009).

Experiments:
Flp-In™ T-REx™-293 cells [1] = assay: Succinate oxidation by digitonin permeabilized cells, Clark oxygen electrode; assay type: cell-based, human; details: AOX-expressing cells, 100 μM propyl gallate added after cyanide
Drosophila mitochondria = assay: Oxygen consumption of isolated mitochondrial suspensions from flies; assay type: biochemical, Drosophila melanogaster; details: mitochondria from AOX-expressing flies
Flp-In™ T-REx™-293 cells [2] = assay type: cell-based, human

In the case of `CCCOC(=O)c1cc(O)c(O)c(O)c1` [n-propyl gallate], the “inhibition of cyanide-resistant succinate oxidation” value (Flp-In™ T-REx™-293 cells [1]) is reported as “fully inhibited”, the “sensitivity of residual cyanide-insensitive respiratory activity to AOX inhibitors” value (Drosophila mitochondria; cyanide present) is reported as “sensitive” and the “effect of AOX inhibitors on respiration when cyanide absent” value (Drosophila mitochondria; no cyanide) is reported as “only a small effect”. The “inhibition of residual cyanide-insensitive respiration” value (Flp-In™ T-REx™-293 cells [2]) was “completely inhibited” and the “inhibition of respiration in the presence of cyanide” value (Flp-In™ T-REx™-293 cells [2]) was “almost completely inhibited”.
